Data from US20250179059A1 (The Regents of the University of California, priority 2021, published 2025).

Key:
[1] = biological target: T1, human BRD4 bromodomain II (Homo sapiens, UniProt O60885); test: Bromodomain binding assay (AlphaScreen), BRD4 BDII; conditions: AlphaScreen assay, Table C2; read-out: BRD4 BDII IC50
T1 construct: human BRD4 bromodomain II [based on Genbank NM_058243, residues 349-460]; host or cells: E. coli
Summary of the method: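 AlphaScreen competition with biotinylated H4 peptide (aa 1-21, K5/K8/K12/K16Ac), using nickel-chelate acceptor and streptavidin donor beads. Targets were His6-BRD4 BDI (44-170) or BDII (349-460), with a 30 min compound preincubation over a 10-point 3-fold series. IC50 was fitted from percentage peptide binding.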

[2] = test system: human SKM-1 acute myeloid leukemia cells; test: SKM-1 antiproliferation cell-based assay (ATPlite); conditions: Homo sapiens, SKM-1, 96 h, SKM-1 antiproliferation assay, 4 days, Table C2
Summary of the method: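 Log-phase cells in RPMI 1640/15% FBS were seeded at 34722 cells/mL and exposed for 4 days to nine-concentration DMSO serial dilutions in triplicate. Viability was read as ATP luminescence (ATPlite 1step), and IC50 values came from variable-slope non-linear regression.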

Row | IC50 [1] [nM] | GI50 [2] [nM] | Compound
1 | 0.01 to 1 | 0.3 to 30 | C[C@@H]1CN(c2cc(-c3cc(F)cc(-c4ccc(-n5ccn(C)c5=O)c(Cl)c4)c3O)cc3c2ccn3C)CCN1 [Example 579, (R)-1-(3-chloro-5′-fluoro-2′-hydroxy-3′-(1-methyl-4-(3-methylpiperazin-1-yl)-1H-indol-6-yl)-[1,1′-biphenyl]-4-yl)-3-methyl-1H-imdazol-2(3H)-one]
2 | 0.01 to 1 | 0.3 to 30 | C[C@@H]1CN(c2cc(-c3cc(F)cc(-c4ccc(-n5ccn(C)c5=O)c(Cl)c4)c3O)cc3c2cnn3C)CCN1 [Example 580]
3 | 0.01 to 1 | 30 to 300 | Cn1ccn(-c2ccc(-c3cc(F)cc(-c4cc(N5CCC(N)CC5)c5cn[nH]c5c4)c3O)cc2Cl)c1=O [Example 581]
4 | 1 to 10 | 0.3 to 30 | Cn1ccn(-c2ccc(-c3cc(F)cc(-c4cc(N5CCC[C@@H](N)C5)c5cn[nH]c5c4)c3O)cc2Cl)c1=O [Example 586, (R)-1-(3′-(4-(3-aminopiperidin-1-yl)-1H-indazol-6-yl)-3-chloro-5′-fluoro-2′-hydroxy-[1,1′-biphenyl]-4-yl)-3-methyl-1H-imidazol-2(3H)-one]
5 | 1 to 10 | 0.3 to 30 | CC(C)N1CCN(c2cc(-c3cc(F)cc(-c4ccc(-n5ccn(C)c5=O)c(Cl)c4)c3O)cc3[nH]ncc23)CC1 [Example 587, 1-(3-chloro-5′-fluoro-2′-hydroxy-3′-(4-(4-isopropylpiperazin-1-yl)-1H-indazol-6-yl)-[1,1′-biphenyl]-4-yl)-3-methyl-1H-imidazol-2(3H)-one]
6 | 1 to 10 | 0.3 to 30 | Cn1ccn(-c2ccc(-c3cc(F)cc(-c4cc(N5CCNC(C)(C)C5)c5cn[nH]c5c4)c3O)cc2Cl)c1=O [Example 589, 1-(3-chloro-3′-(4-(3,3-dimethylpiperazin-1-yl)-1H-indazol-6-yl)-5′-fluoro-2′-hydroxy-[1,1′-biphenyl]-4-yl)-3-methyl-1H-imidazol-2(3H)-one]
7 | 1 to 10 | 30 to 300 | Cn1ccn(-c2ccc(-c3cc(F)cc(-c4cc(N5CCOCC5)c5cn[nH]c5c4)c3O)cc2Cl)c1=O [Example 590, 1-(3-chloro-5′-fluoro-2′-hydroxy-3′-(4-morpholino-1H-indazol-6-yl)-[1,1′-biphenyl]-4-yl)-3-methyl-1H-imidazol-2(3H)-one]
8 | 0.01 to 1 | 0.3 to 30 | C[C@@H]1CN(c2cc(-c3cc(F)cc(-c4ccc(-n5ccn(C)c5=O)c(Cl)c4)c3O)cc3cccnc23)CCN1 [Example 591, (R)-1-(3-chloro-5′-fluoro-2′-hydroxy-3′-(8-(3-methylpiperazin-1-yl)quinolin-6-yl)-[1,1′-biphenyl]-4-yl)-3-methyl-1H-imidazol-2(3H)-one]
9 | 0.01 to 1 | 0.3 to 30 | Cn1ccn(-c2ccc(-c3cc(F)cc(-c4cc(N5CC[C@@H](N)C5)c5cn[nH]c5c4)c3O)cc2Cl)c1=O [Example 593, (R)-1-(3′-(4-(3-aminopyrrolidin-1-yl)-1H-indazol-6-yl)-3-chloro-5′-fluoro-2′-hydroxy-[1,1′-biphenyl]-4-yl)-3-methyl-1H-imidazol-2(3H)-one]
10 | 10 to 100 | 300 to 3000 | C[C@H]1CCCN(c2cc(-c3cc(F)cc(-c4ccc(-n5ccn(C)c5=O)c(Cl)c4)c3O)cc3[nH]ncc23)C1 [Example 596, (S)-1-(3-chloro-5′-fluoro-2′-hydroxy-3′-(4-(3-methylpiperidin-1-yl)-1H-indazol-6-yl)-[1,1′-biphenyl]-4-yl)-3-methyl-1H-imidazol-2(3H)-one]

Further lines, the compound ahead of its results:

Row | Compound | IC50 [1] [nM] | GI50 [2] [nM]
11 | C[C@@H]1CN(c2cc(-c3cc(F)cc(-c4ccc(-n5ccn(C)c5=O)c(Cl)c4)c3O)cc3[nH]ncc23)C[C@H](C)N1 [Example 577] | 0.01 to 1 | 0.3 to 30
12 | Cn1ccn(-c2ccc(-c3cc(F)cc(-c4cc(N5CCC[C@H](N)C5)c5cn[nH]c5c4)c3O)cc2Cl)c1=O [Example 578] | 0.01 to 1 | 0.3 to 30
13 | CCN1CCN(c2cc(-c3cc(F)cc(-c4ccc(-n5ccn(C)c5=O)c(Cl)c4)c3O)cc3[nH]ncc23)CC1 [Example 582] | 0.01 to 1 | 0.3 to 30
14 | CN[C@H]1CCN(c2cc(-c3cc(F)cc(-c4ccc(-n5ccn(C)c5=O)c(Cl)c4)c3O)cc3[nH]ncc23)C1 [Example 583] | 1 to 10 | 0.3 to 30
15 | C[C@@H]1CN(c2cc(-c3cc(F)cc(-c4ccc(-n5ccn(C)c5=O)c(Cl)c4)c3O)cn3ccnc23)CCN1 [Example 584] | 0.01 to 1 | 0.3 to 30
16 | Cc1cc(-c2ccc(-n3ccn(C)c3=O)c(Cl)c2)c(O)c(-c2cc(N3CCN[C@H](C)C3)c3cn[nH]c3c2)c1 [Example 585, (R)-1-(3-chloro-2′-hydroxy-5′-methyl-3′-(4-(3-methylpiperazin-1-yl)-1H-indazol-6-yl)-[1,1′-biphenyl]-4-yl)-3-methyl-1H-imidazol-2(3H)-one] | 1 to 10 | 0.3 to 30
17 | CN1CCN(c2cc(-c3cc(F)cc(-c4ccc(-n5ccn(C)c5=O)c(Cl)c4)c3O)cc3[nH]ncc23)CC1 [Example 588, 1-(3-chloro-5′-fluoro-2′-hydroxy-3′-(4-(4-methylpiperazin-1-yl)-1H-indazol-6-yl)-[1,1′-biphenyl]-4-yl)-3-methyl-1H-imidazol-2(3H)-one] | 0.01 to 1 | 0.3 to 30
18 | CCC[C@@H]1CN(c2cc(-c3cc(F)cc(-c4ccc(-n5ccn(C)c5=O)c(Cl)c4)c3O)cc3[nH]ncc23)CCN1 [Example 592, (R)-1-(3-chloro-5′-fluoro-2′-hydroxy-3′-(4-(3-propylpiperazin-1-yl)-1H-indazol-6-yl)-[1,1′-biphenyl]-4-yl)-3-methyl-1H-imidazol-2(3H)-one] | 1 to 10 | 0.3 to 30
19 | CC[C@@H]1CN(c2cc(-c3cc(F)cc(-c4ccc(-n5ccn(C)c5=O)c(Cl)c4)c3O)cc3[nH]ncc23)CCN1 [Example 594, (R)-1-(3-chloro-3′-(4-(3-ethylpiperazin-1-yl)-1H-indazol-6-yl)-5′-fluoro-2′-hydroxy-[1,1′-biphenyl]-4-yl)-3-methyl-1H-imidazol-2(3H)-one] | 0.01 to 1 | 0.3 to 30
20 | C[C@H]1CN(c2cc(-c3cc(F)cc(-c4ccc(-n5ccn(C)c5=O)c(Cl)c4)c3O)cc3[nH]ncc23)CCN1 [Example 595, (S)-1-(3-chloro-5′-fluoro-2′-hydroxy-3′-(4-(3-methylpiperazin-1-yl)-1H-indazol-6-yl)-[1,1′-biphenyl]-4-yl)-3-methyl-1H-imidazol-2(3H)-one] | 1 to 10 | 0.3 to 30
21 | CC(C)[C@@H]1CN(c2cc(-c3cc(F)cc(-c4ccc(-n5ccn(C)c5=O)c(Cl)c4)c3O)cc3[nH]ncc23)CCN1 [Example 597, (R)-1-(3-chloro-5′-fluoro-2′-hydroxy-3′-(4-(3-isopropylpiperazin-1-yl)-1H-indazol-6-yl)-[1,1′-biphenyl]-4-yl)-3-methyl-1H-imidazol-2(3H)-one] | 1 to 10 | 0.3 to 30
22 | Cn1ccn(-c2ccc(-c3cc(F)cc(-c4cc(N5C[C@@H](N)C6(CC6)C5)c5cn[nH]c5c4)c3O)cc2Cl)c1=O [Example 598, (S)-1-(3′-(4-(7-amino-5-azaspiro[2.4]heptan-5-yl)-1H-indazol-6-yl)-3-chloro-5′-fluoro-2′-hydroxy-[1,1′-biphenyl]-4-yl)-3-methyl-1H-imidazol-2(3H)-one] | 1 to 10 | 0.3 to 30
